Assays:
[1] = tested on: Dietary obese male F344/Jcl rats; test: Anorectic effect (food intake) in dietary obese male F344/Jcl rats; type: in vivo; conditions: Rattus norvegicus, 48 h; oral, 0.5% methylcellulose suspension (5 mg/mL) at 2 mL/kg, on start day and evening of next day; food intake from initial administration to 2 days later; vs control group; read-out: Food intake inhibition rate (%)
From the text: Evaluation of Anorectic Effect Using Dietary Obese Male F344/Jcl Rats
Dietary obese male F344/Jcl rats (42-57-week-old) reared on a high-fat diet (Research Diets: D12451) from 5 weeks of age were used. From before the start of experiment, the rats were independently raised, a powder high-fat diet (Research Diets: D12451M) was given, tap water was orally administered for acclimation, and thereby the rats were habituated. The food intake from the evening of the day before the start of experiment to the next morning was measured, and the rats were grouped based on the food intake and the body weight of the previous day as indices. On the day of the start of experiment and in the evening of the next day, 0.5% methylcellulose solution was orally administered to the control group, and 0.5% methylcellulose suspension (5 mg/mL) of the test compound was orally administered to the compound administration group at 2 mL/kg (6 per group for both control group and compound administration group). The food intake from the initial administration to 2 days later was measured. The food intake inhibition rate of each compound administration group to the control group was calculated.

human MCHR1 [2] = target: T1, human MCHR1 (Homo sapiens, UniProt Q99705); test: MCH receptor 1 antagonistic activity, Ca2+ mobilization assay in human MCHR1-expressing CHO cells; type: cell-based; conditions: test compound 0.1 μM; human MCHR1-expressing CHO cell; ligand MCH (4-19) peptide 20 nM; Fluo4 fluorescence; read-out: Inhibition rate (%)
T1 construct: expressed in transfected cells; host or cells: CHO cell clone 57 (membrane fraction)
T1 sequence (Q99705 whole entry): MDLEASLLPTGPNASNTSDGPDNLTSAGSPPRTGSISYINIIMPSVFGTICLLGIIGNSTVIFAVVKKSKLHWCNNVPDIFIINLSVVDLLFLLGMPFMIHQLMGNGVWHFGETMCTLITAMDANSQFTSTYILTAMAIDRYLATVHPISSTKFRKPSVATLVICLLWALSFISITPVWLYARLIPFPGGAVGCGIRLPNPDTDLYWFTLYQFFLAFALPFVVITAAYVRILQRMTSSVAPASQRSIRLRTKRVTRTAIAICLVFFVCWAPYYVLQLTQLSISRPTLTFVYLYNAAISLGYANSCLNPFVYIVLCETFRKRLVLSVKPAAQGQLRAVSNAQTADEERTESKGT
Description: Measurement of MCH Receptor 1 Antagonistic Activity of Test Compound Using Ca^2+ Mobilization Assay
CHO cell (CHO dhfr^−, clone #4) expressing a recombinant human MCHR1 gene for Ca^2+ mobilization assay was prepared by us. The cell was cultured in MEMα medium [445 mL of MEMα medium without nucleic acid and added with 5 mL of Penicillin-Streptomycin (Invitrogen) and 50 mL of dialyzed fetal bovine serum]. An integrated dispensing function fluorometer (CellLux, PerkinElmer) was used for Ca^2+ mobilization assay. CHO cells were sown in a 96 well plate (type 3904, Corning) with a black plate wall and clear well bottom at a density of 20000 cells/well, and cultured in an incubator for about 24 hr at 5% CO2, 37° C. The medium was removed, and the cells were washed with phosphate buffered saline (PBS). A Ca^2+ indicator dye reagent (DOJINDO LABORATORIES, Ca screening no-wash kit Fluo4) was added at 90 μL/well, and the dye was allowed to penetrate into the cell for 30 min in an incubator at 5% CO2, 37° C. The plate was set on a plate reader, a test compound solution diluted with an assay buffer [10 mM HEPES (pH 7.4), 1× assay buffer containing 0.1% BSA (DOJINDO LABORATORIES, attached to Ca screening no-wash kit Fluo4)] or DMSO solution was added at 10 μL/well, and ligand MCH (4-19) peptide (final concentration 20 nM) diluted with assay buffer or DMSO was added at 50 μL/well, during which changes in intracellular fluorescence were measured at 2 second intervals. The antagonistic activity of the test compound was calculated and shown as an inhibition rate (%) wherein the intracellular fluorescence activity resulting from the stimulation by the addition of ligand MCH (4-19) peptide was 100% and that of the well added with DMSO solution alone was 0%.

human MCHR1 [3] = target: T1, human MCHR1; test: Human MCH receptor 1 (MCHR1) competitive binding assay, [125I]-MCH(4-19), CHO cell membrane fraction; conditions: test compound 0.1 μM, human MCHR1-expressing CHO cell membrane, 25° C., 1 hr, read-out: Binding inhibition rate (0.1 μM)
Description: Determination of Human MCH Receptor 1 (MCHR1) Competitive Inhibitory Activity of Test Compound Using Binding Assay
Using human MCHR1(=SLC-1 receptor)-expressing CHO cell clone 57 and rat MCHR1-expressing CHO cell clone 44 described in WO01/82925, MCHR1-expressing CHO cellular membrane fractions were prepared by the following method. In phosphate buffered saline (pH 7.4) supplemented with 5 mM EDTA (ethylenediaminetetraacetic acid) were respectively suspended human and rat MCHR1-expressing CHO cells (1×10^8 cells) and centrifuged. Homogenate buffer (10 mL, 10 mM NaHCO3, 5 mM EDTA, pH 7.5, 0.5 mM PMSF (phenylmethylsulfonyl fluoride), 20 mg/L leupeptin, 4 mg/L E-64, 1 mg/L pepstatin A) was added to the pellets of the cells and, using Polytron Homogenizer, the mixture was homogenated. The supernatant obtained after centrifugation at 400×g for 10 min was further centrifuged at 100,000×g for 1 hr to give precipitate of the membrane fraction. The precipitate were suspended in 2 mL of assay buffer [20 mM Tris-HCl (pH 7.5), 5 mM EDTA, 0.5 mM PMSF, 20 mg/L leupeptin, 4 mg/L E-64, 1 mg/L pepstatin A]. The membrane fractions were suspended in assay buffer to a protein concentration of 2 mg/mL, and after dispensing, preserved at −80° C. and used upon thawing each time when in use.
The MCHR1 ligand binding inhibitory activity of the test compound was determined as follows. An MCHR1-expressing CHO cellular membrane fraction (175 μL) diluted with an assay buffer was dispensed to a 96 well polypropylene plate (3363, Corning). DMSO solution (2 μL), 100 μm cold MCH(1-19) diluted with DMSO solution (2 μL), or a test compound solution diluted with DMSO solution to various concentrations (2 μL) was added, and lastly, [^125I]-MCH(4-19) diluted with assay buffer (25 μL) was added to each well. The reaction mixture was reacted at 25° C. for 1 hr with stirring, and the reaction mixture was filtered by suction using a glass filter plate (GF/C, PerkinElmer). The filter was washed 3 times with a wash solution (300 μL, 50 mM Tris-HCl buffer, pH 7.5). The glass filter plate was dried, a liquid scintillator was added at 25 μL/well, and the residual radioactivity was measured by TopCount (PerkinElmer). The binding inhibition rate of the test compound was calculated by the following formula. Binding inhibition (%)=(radioactivity upon addition of test compound and hot MCH−radioactivity upon addition of cold MCH and hot MCH solution)/(radioactivity upon addition of DMSO solution and hot MCH−radioactivity upon addition of cold MCH and hot MCH solution)×100

Row | inhibition at 0.1 µM (human MCHR1 [2]) | melting point | inhibition at 0.1 µM (human MCHR1 [3]) | SMILES | inhibition in vivo at 10 mg/kg [1]
1 | 97% | 157 to 158 °C | 97% | Cn1c(CNCC2CCOCC2)cc2cc(NC(=O)c3ccc(OC[C@@H]4CCCO4)cc3)ccc21 [Example 17, N-(1-methyl-2-{[(tetrahydro-2H-pyran-4-ylmethyl)amino]methyl}-1H-indol-5-yl)-4-[(2S)-tetrahydrofuran-2-ylmethoxy]benzamide] | 14.7%
2 | 97% | 175 to 176 °C | 97% | Cc1c(NC(=O)c2ccc(OCC3CC3)cc2)ccc2c1cc(CNCC(C)(C)O)n2C [Example 50, 4-(cyclopropylmethoxy)-N-(2-{[(2-hydroxy-2-methylpropyl)amino]methyl}-1,4-dimethyl-1H-indol-5-yl)benzamide] | 26.5%
3 | 96% | 200 °C | 97% | Cc1c(NC(=O)c2ccc(OC[C@@H]3CCCO3)cc2)ccc2c1cc(CN[C@H]1CC[C@](C)(O)CC1)n2C [Example 53-2, N-(2-{[(trans-4-hydroxy-4-methylcyclohexyl)amino]methyl}-1,4-dimethyl-1H-indol-5-yl)-4-[(2S)-tetrahydrofuran-2-ylmethoxy]benzamide] | –
4 | 99% | 166 to 167 °C | 98% | Cc1c(NC(=O)c2ccc(OC[C@@H]3CCCO3)cc2)ccc2c1cc(CNCC1CCOCC1)n2C [Example 55, N-(1,4-dimethyl-2-{[(tetrahydro-2H-pyran-4-ylmethyl)amino]methyl}-1H-indol-5-yl)-4-[(2S)-tetrahydrofuran-2-ylmethoxy]benzamide] | 22.7%
5 | 97% | 118 °C | 98% | Cc1c(NC(=O)c2ccc(OC[C@@H]3CCCO3)cc2F)ccc2c1cc(CNCC(C)(C)O)n2C [Example 60, 2-fluoro-N-(2-{[(2-hydroxy-2-methylpropyl)amino]methyl}-1,4-dimethyl-1H-indol-5-yl)-4-[(2S)-tetrahydrofuran-2-ylmethoxy]benzamide] | 19.9%
6 | 96% | 197 to 198 °C | 99% | Cc1c(NC(=O)c2ccc(OC[C@@H]3CCCO3)cc2)ccc2cc(CNCC3CCOCC3)n(C)c12 [Example 83, N-(1,7-dimethyl-2-{[(tetrahydro-2H-pyran-4-ylmethyl)amino]methyl}-1H-indol-6-yl)-4-[(2S)-tetrahydrofuran-2-ylmethoxy]benzamide] | –
7 | 97% | 171 to 172 °C | 101% | Cc1c(NC(=O)c2ccc(OC[C@@H]3CCCO3)cc2)ccc2cc(CN[C@H]3CC[C@](C)(O)CC3)n(C)c12 [Example 84, N-(2-{[(trans-4-hydroxy-4-methylcyclohexyl)amino]methyl}-1,7-dimethyl-1H-indol-6-yl)-4-[(2S)-tetrahydrofuran-2-ylmethoxy]benzamide] | 12.1%
8 | 98% | 131 to 132 °C | 95% | Cc1c(NC(=O)c2ccc(OC[C@@H]3CCCO3)cc2F)ccc2cc(CN[C@H]3CC[C@](C)(O)CC3)n(C)c12 [Example 88, 2-fluoro-N-(2-{[(trans-4-hydroxy-4-methylcyclohexyl)amino]methyl}-1,7-dimethyl-1H-indol-6-yl)-4-[(2S)-tetrahydrofuran-2-ylmethoxy]benzamide] | 17.5%
